The target in test [1] is T1, PI3K-α (PIK3CA) H1047R mutant, p110α/p85α complex (Homo sapiens, UniProt P42336, H1047R).
T1 construct: Recombinant, catalytically active human full length PIK3KA Wild-type and H1047R mutant; 6×His (N); purchased EMD Millipore Sigma 14-792M
Put plainly: PI3K-alpha kinase (PIK3CA) biochemical activity, ADP-Glo, H1047R mutant. The source says: (§1) PI3K-Alpha Kinase (PIK3CA) Activity, Wild-Type and H1047R Mutant and Determining IC50 Values for Inhibitors
(§2) Recombinant, catalytically active human full length PIK3KA Wild-type and H1047R mutant were purchased as 1:1 complex of N-terminal 6×his tagged p110α (catalytic) and untagged p85α (regulatory subunit) from EMD Millipore Sigma (cat. no. 14-602M and 14-792M, respectively). PIP2diC8 (Avanti Polar Lipids Inc., cat. no. 850185) or Soy PI (Avanti Polar Lipids Inc., cat. No. 840044P) was used as lipid substrate. PIP2diC8 or PI lyophilized powder was dissolved in milliQ water to a concentration of 1 mM just before use. 10 mM stock compounds in DMSO were serially diluted 1:3 to generate a 10-point curve and plated using an acoustic liquid handler system (Echo 550 series instrument, Labcyte). A 10× intermediate compound plate (200 uM starting compound concentration and 10% DMSO) was prepared before starting the reaction. A typical reaction mixture (50 uL) comprised 40 mM HEPES buffer, pH 7.4, 25 mM MgCl2, 0.01% v/v triton-X-100, 1% v/v DMSO, 20 mM NaCl, 1-5 nM WT or H1047R PI3K protein, 20 uM ATP, and 50 uM PIP2diC8 or Soy PI. 1% DMSO buffer alone without test compound was employed as MAX control (full activity in the absence of any inhibitor), and no enzyme control was used to determine the level of background Adenosine 5′-diphosphate (ADP) (MIN control). First, Wild-type (WT) and H1047R mutant protein in kinase buffer with all components except ATP were incubated with or without compound at 27° C. for 1 h. After the pre-incubation, the reaction was initiated by the addition of 20 uL of 50 uM ATP (20 uM final concentration). The reaction was allowed to proceed until about 10% conversion of ATP (2 uM ADP) at 27° C. After that time, 5 uL of reaction was mixed with 5 uL of ADP-Kinase Glo Reagent (ADP-Glo Kinase assay kit, Promega cat. no. V9102) supplemented with MgCl2 10 mM to stop the reaction and deplete the remaining ATP for 40 min at room temperature. Then, 10 uL of Kinase Detection Reagent (ADP-Glo Kinase assay kit, Promega cat. no. V9102) was added to simultaneously convert ADP to ATP and allow the newly synthesized ATP to be measured using a luciferase/luciferin reaction. After 30 min at room temperature the light generated was measured using a luminometer (EnVision plate reader, Perkin Elmer). Process data through Genedata-Screener tool. Relative IC50 values are determined using luminescence units by calculating percent inhibition with respect to on-plate “MIN” and “MAX” controls. Data was analyzed using a 4-parameter nonlinear logistic equation (four-parameter logistic concentration-response curve): Y=bot+[(top−bot)/1+(x/IC50)slope] where Y=% inhibition, X=concentration yielding y % inhibition, Bottom=minimum value of y attained by curve, Top=maximum value of y attained by curve and Slope=steepness of curve at IC50. % Inh=[(median Max−x/median Max−median Min)]·100 IC50: concentration of compound that reduces a given response (ligand binding, enzyme response) by 50%. IC50 relative: concentration giving half the compound's maximum response.
On the technique in general: In ADP-Glo the light output rises with the ADP produced.

In test [2] the target is T2, PI3K-α (PIK3CA) wild-type (WT), p110α/p85α complex (Homo sapiens, UniProt P42336).
T2 construct: Recombinant, catalytically active human full length PIK3KA Wild-type and H1047R mutant; 6×His (N); purchased EMD Millipore Sigma 14-602M
Put plainly: PI3K-alpha kinase (PIK3CA) biochemical activity, ADP-Glo, wild-type.
Description: as §1, §2

The mark [3] stands for this setting: PIP2diC8 lipid substrate (footnote 1).

We go through eleven compounds from patent US11878970B2, “Allosteric chromenone inhibitors of phosphoinositide 3-kinase (PI3K) for the treatment of disease” (Petra Pharma Corporation, priority 2021, dated 2024).

T1 sequence (P42336 whole entry H1047R): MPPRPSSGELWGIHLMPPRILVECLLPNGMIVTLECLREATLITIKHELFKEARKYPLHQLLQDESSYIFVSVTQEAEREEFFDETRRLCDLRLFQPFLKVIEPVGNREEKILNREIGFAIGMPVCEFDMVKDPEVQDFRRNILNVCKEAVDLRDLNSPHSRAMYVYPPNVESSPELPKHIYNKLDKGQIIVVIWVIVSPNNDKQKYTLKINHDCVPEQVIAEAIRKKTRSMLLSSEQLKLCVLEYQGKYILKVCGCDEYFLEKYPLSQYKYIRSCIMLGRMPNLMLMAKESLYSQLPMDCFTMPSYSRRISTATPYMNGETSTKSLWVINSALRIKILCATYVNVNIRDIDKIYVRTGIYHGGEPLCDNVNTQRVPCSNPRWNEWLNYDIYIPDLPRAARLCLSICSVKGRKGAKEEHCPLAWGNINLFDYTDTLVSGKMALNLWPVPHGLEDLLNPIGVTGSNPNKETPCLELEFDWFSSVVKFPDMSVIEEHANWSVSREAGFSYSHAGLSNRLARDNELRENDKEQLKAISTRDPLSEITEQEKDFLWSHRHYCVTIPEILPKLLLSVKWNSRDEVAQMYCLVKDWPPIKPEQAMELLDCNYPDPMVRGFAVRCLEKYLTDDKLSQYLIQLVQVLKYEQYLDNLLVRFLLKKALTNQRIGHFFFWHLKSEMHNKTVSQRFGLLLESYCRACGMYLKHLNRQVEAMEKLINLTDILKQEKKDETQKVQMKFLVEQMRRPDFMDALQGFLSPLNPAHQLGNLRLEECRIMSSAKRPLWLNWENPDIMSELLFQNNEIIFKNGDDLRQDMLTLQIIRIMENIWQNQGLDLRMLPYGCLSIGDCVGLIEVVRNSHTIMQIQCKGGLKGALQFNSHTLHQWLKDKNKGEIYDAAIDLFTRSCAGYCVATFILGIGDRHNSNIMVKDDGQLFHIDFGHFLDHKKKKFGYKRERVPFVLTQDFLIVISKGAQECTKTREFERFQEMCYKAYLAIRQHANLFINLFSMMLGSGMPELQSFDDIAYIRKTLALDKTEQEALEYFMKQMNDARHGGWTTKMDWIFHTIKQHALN
T1 sequence (P27986 whole entry partner): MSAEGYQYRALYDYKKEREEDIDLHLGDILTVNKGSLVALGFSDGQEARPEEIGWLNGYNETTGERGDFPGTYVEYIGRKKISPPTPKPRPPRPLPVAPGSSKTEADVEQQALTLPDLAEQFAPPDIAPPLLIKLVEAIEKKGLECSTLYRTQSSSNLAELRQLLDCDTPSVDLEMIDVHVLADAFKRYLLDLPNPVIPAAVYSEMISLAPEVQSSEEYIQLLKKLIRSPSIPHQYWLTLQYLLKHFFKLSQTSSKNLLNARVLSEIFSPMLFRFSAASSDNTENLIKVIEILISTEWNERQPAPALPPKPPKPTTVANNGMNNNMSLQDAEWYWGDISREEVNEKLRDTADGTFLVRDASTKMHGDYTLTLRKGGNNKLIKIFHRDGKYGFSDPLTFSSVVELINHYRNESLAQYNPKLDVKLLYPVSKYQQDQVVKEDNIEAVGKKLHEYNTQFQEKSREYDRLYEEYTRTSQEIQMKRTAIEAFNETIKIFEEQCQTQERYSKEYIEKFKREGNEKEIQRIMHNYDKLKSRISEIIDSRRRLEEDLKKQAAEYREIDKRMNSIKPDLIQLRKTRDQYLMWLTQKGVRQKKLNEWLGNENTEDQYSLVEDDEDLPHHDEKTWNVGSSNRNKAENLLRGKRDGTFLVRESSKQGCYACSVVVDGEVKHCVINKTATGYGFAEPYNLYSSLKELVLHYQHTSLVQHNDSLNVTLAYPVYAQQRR

Usually IC50 stands for the concentration at which inhibition is half-maximal. A high value points to weaker potency in that assay. On to `Cc1cc(C(C)Nc2ccccc2C(=O)O)c2oc(-n3ncc4ncccc43)cc(=O)c2c1` (single isomer, unassigned) [Example 48, 2-[1-(6-Methyl-4-oxo-2-pyrazolo[4,3-b]pyridin-1-yl-chromen-8-yl)ethylamino]benzoic acid], for which the IC50 in test [1] (Soy PI lipid substrate) and in test [2] (Soy PI lipid substrate) was less than 0.5 µM in each case.

`Cc1cc(C(C)Nc2ccccc2C(=O)O)c2oc(-c3cnn4ccccc34)cc(=O)c2c1` (stereo not shown) [Example 10, 2-[1-(6-Methyl-4-oxo-2-pyrazolo[1,5-a]pyridin-3-yl-chromen-8-yl)ethylamino]benzoic acid]: the IC50 was less than 0.5 µM in test [1] (Soy PI lipid substrate) and 1 to 5 µM in test [2] (Soy PI lipid substrate).

`Cc1cc(C(C)Nc2ccccc2C(=O)O)c2oc(-c3ccn4c(C)nnc4c3)cc(=O)c2c1` (single isomer, unassigned) [Example 77, 2-[1-[6-Methyl-2-(3-methyl-[1,2,4]triazolo[4,3-a]pyridin-7-yl)-4-oxo-chromen-8-yl]ethylamino]benzoic acid]: the values for the IC50 in test [1] (Soy PI lipid substrate) and in test [2] (Soy PI lipid substrate) were less than 0.5 µM and 5 to 10 µM, respectively.

For the compound `Cc1cc(C(C)Nc2ccccc2C(=O)O)c2oc(-c3ccc4c(c3)CN(C)C4=O)cc(=O)c2c1` (stereo not shown) [Example 30, 2-[1-[6-Methyl-2-(2-methyl-1-oxo-isoindolin-5-yl)-4-oxo-chromen-8-yl]ethylamino]benzoic acid], the IC50 in test [1] (Soy PI lipid substrate) was less than 0.5 µM; in test [2] (Soy PI lipid substrate) it was 1 to 5 µM.

Regarding `Cc1cc(C(C)Nc2ccccc2C(=O)O)c2oc(-c3nn(C)c4ccccc34)cc(=O)c2c1` (single isomer, unassigned) [Example 23, 2-[1-[6-Methyl-2-(1-methylindazol-3-yl)-4-oxo-chromen-8-yl]ethylamino]benzoic acid], the IC50 in test [1] (Soy PI lipid substrate) is less than 0.5 µM; in test [2] (Soy PI lipid substrate), 0.5 to 1 µM.

Take `Cc1nc2ccc(-c3cc(=O)c4cc(C(F)(F)F)cc(C(C)Nc5ccc(Cl)nc5C(=O)O)c4o3)cc2s1` (single isomer, unassigned) [Example 167, 6-Chloro-3-[1-[2-(2-methyl-1,3-benzothiazol-6-yl)-4-oxo-6-(trifluoromethyl)chromen-8-yl]ethylamino]pyridine-2-carboxylic acid]: the values for the IC50 in test [1] (Soy PI lipid substrate) and in test [2] (Soy PI lipid substrate) were less than 0.5 µM and 1 to 5 µM, respectively.

On to `Cc1cc(C(C)Nc2ccccc2C(=O)O)c2oc(-c3ccc4nncn4c3)cc(=O)c2c1` (single isomer, unassigned) [Example 76, 2-[1-[6-Methyl-4-oxo-2-([1,2,4]triazolo[4,3-a]pyridin-6-yl)chromen-8-yl]ethylamino]benzoic acid], for which the figures for the IC50 in test [1] (Soy PI lipid substrate) and in test [2] (Soy PI lipid substrate) were less than 0.5 µM and greater than 10 µM, respectively.

Regarding `Cc1cc(C(C)Nc2ccccc2C(=O)O)c2oc(-c3ccc4[nH]c(C(F)(F)F)cc4c3)cc(=O)c2c1` (stereo not shown) [Example 11, 2-[1-[6-Methyl-4-oxo-2-[2-(trifluoromethyl)-1H-indol-5-yl]chromen-8-yl]ethylamino]benzoic acid], the IC50 in test [1] (setting [3]) and in test [2] (setting [3]) was 0.5 to 1 µM throughout.

Turning to `Cc1cc(C(C)Nc2ccccc2C(=O)O)c2oc(-c3ccc4c(C)n[nH]c4c3)cc(=O)c2c1` (single isomer, unassigned) [Example 28, 2-[1-[6-Methyl-2-(3-methyl-1H-indazol-6-yl)-4-oxo-chromen-8-yl]ethylamino]benzoic acid], the 50% inhibitory concentration (IC50) in test [1] (Soy PI lipid substrate) was less than 0.5 µM; in test [2] (Soy PI lipid substrate), 1 to 5 µM.

With `Cc1cc(C(C)Nc2ccc(C)nc2C(=O)O)c2oc(-c3ccc4nn(C)cc4c3)cc(=O)c2c1` (single isomer, unassigned) [Example 180, 6-Methyl-3-[1-[6-methyl-2-(2-methylindazol-5-yl)-4-oxo-chromen-8-yl]ethylamino]pyridine-2-carboxylic acid], the 50% inhibitory concentration (IC50) in test [1] (Soy PI lipid substrate) was less than 0.5 µM; in test [2] (Soy PI lipid substrate), 1 to 5 µM.

As to `Cc1cc(C(C)Nc2ccccc2C(=O)O)c2oc(-c3cccc4c3OCO4)cc(=O)c2c1` (single isomer, unassigned) [Example 45, 2-[1-[2-(1,3-Benzodioxol-4-yl)-6-methyl-4-oxo-chromen-8-yl]ethylamino]benzoic acid], the IC50 in test [1] (Soy PI lipid substrate) and in test [2] (Soy PI lipid substrate) was less than 0.5 µM throughout.
